Values quoted from earlier work in US20250339568A1, “PRECURSOR AND RADIOTRACER FOR NEUROENDOCRINE THERANOSTICS” (ITM Oncologics GmbH, priority 2021, published 2025).

Biological target: T1, HEK293-SSR2 tumour cells (Homo sapiens, UniProt P30874)
T1 construct: host or cells: HEK293-SSR2 tumour cells
Details: reference example of EP 2 801 582 A1, Table 12

T1 sequence (P30874 whole entry): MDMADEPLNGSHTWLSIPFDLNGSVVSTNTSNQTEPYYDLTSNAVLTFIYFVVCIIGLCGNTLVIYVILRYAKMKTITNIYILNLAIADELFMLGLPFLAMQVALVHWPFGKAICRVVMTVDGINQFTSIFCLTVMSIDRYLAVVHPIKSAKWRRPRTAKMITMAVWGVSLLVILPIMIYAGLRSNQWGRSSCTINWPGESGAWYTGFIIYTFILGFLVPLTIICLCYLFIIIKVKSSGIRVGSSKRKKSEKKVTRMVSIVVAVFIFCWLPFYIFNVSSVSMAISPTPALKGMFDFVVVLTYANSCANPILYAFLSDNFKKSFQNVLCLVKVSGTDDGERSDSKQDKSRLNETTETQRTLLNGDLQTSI

DOTA-Cpa-cyclo[DCys-Pal-DAph(Cbm)-Lys-Thr-Cys]DTyr-NH2
uptake in HEK293-SSR2 tumour cells: without quantifiable uptake
